In patent publication US20220372013A2, “PIPERIDINE-2,6-DIONE DERIVATIVES AND CROHN'S DISEASE TREATING” (Tianjin Hemay Pharmaceutical Sci-Tech Co., Ltd, priority 2016, published 2022):
Marks after values point to notes of the source that are not given here.

Assays:
[1] = tested on: DNBS-Induced Inflammatory Bowel Disease Models in Rats; assay: Biological Example 1: DNBS-induced inflammatory bowel disease models in rats; type: in vivo, Wistar rats
Description: Wistar rats, male, body weight of 100-120 g.
90 male Wistar rats were fasted for 40 hours. A 5% glucose injection was administered subcutaneously during fasting. 60 rats with normal conditions and moderate body weight were selected from the fasting rats. The animals were randomly divided into 6 groups according to the body weight: normal control group, model control group, sulfasalazine group (300 mg/Kg), and the compound in Example 27 groups consisting of 5, 15 and 30 mg/Kg dose groups. There were 10 rats in each group. The animals were anesthetized with ether. A specially made gavage device (made by a rat gavage device having the diameter of 2 mm, which was nested on a mouse gavage device having the diameter of 1 mm) was slowly inserted into the enteric cavity at 8 cm from the anus. The model control group, the sulfasalazine group and the compound in Example 27 groups were administered with 0.5 mL of 50 mg/mL DNBS in 30% ethanol solution. The normal control group was administered with 0.5 mL of 30% ethanol solution. The animals were inverted in anesthesia for 15 minutes after the gavage device was removed. The day when the model was prepared was the first day of the experiment. After 4 hours of DNBS induction, the corresponding drug or the corresponding volume of 1% CMC-Na was administered once per day. The body weights were recorded and the stool characteristics were scored. On the sixth day of the experiment colon tissues were taken from the animals to observe the results of each index.
The compound in Example 27 and sulfasalazine: Preparation Method: Suspended with 1% CMC-Na, and prepared when it was needed.
Animals were euthanized on the sixth day of the experiment to observe the results of each index. After the animals were sacrificed, colons were obtained. The adhesion degree of colon was observed and the length of the colon was measured. The ulcer area was calculated after removing the contents in the colon and the weight of the colon tissue was weighed. The colon tissue was longitudinally divided into two parts. One part of the colon tissue was fixed in 10% formalin solution for later use. The other part of the colon tissue was put into the liquid nitrogen to quickly frozen, and then was reserved at −80° C. for the detection of MPO.
Calculation method for ulcer area: length of ulcer point (cm)×width of ulcer point (cm).
The frozen tissue was ground into powder in liquid nitrogen. An appropriate amount of the powder was weighed and was added into 50 mM potassium phosphate solution (containing 0.5% cetyltrimethylammonium bromide) to give a 25 mg/mL solution. The resultant solution was homogenized by an electric homogenizer. 1 mL of suspension was centrifuged to give a supernatant. 7 μL of the supernatant was added into a 96-well plate and 200 μL of o-dianisidine mixture (containing 0.167 mg/mL o-dianisidine and 0.0006% H2O2 potassium phosphate buffer). OD values of the resultant solution at 0, 30, 60, and 90 s were detected at 450 nm of the microplate reader.
Test for homogeneity of variance was performed with Spss13.0. Where variance of data was homogeneous (P>0.05), one-way ANOVA LSD test was performed. Where the analysis of variance was significant (P<0.05), then Dunnett's multiple comparison (parameter method) or Kruskal-Wallis non-parametric test was performed. Where the results of Kruskal-Wallis non-parametric test were significant (P<0.05), the Mann-Whitney U test was performed for pairwise comparison.

[2] = tested on: DNBS-Induced Inflammatory Bowel Disease Models in Rats; assay: Biological Example 2: DNBS-induced inflammatory bowel disease models in rats; type: in vivo, Wistar rats
Description: 110 male Wistar rats were fasted for 40 hours. A 5% glucose injection (10 mL/Kg) was administered subcutaneously during fasting. 48 rats with normal conditions and moderate body weight were selected from the fasting rats. The animals were randomly divided into […] according to the body weight: normal control group, model control group, sulfasalazine group (300 mg/Kg), dexamethasone group (0.1 mg/Kg), the compound in Example 26 group (30 mg/kg) and the compound in Example 27 group (30 mg/kg), with 8 rats in each group. The animals were anesthetized with isoflurane. A specially made gavage device (made by a rat gavage device having the diameter of 2 mm, which was nested on a mouse gavage device having the diameter of 1 mm) was slowly inserted into the enteric cavity at 8 cm from the anus. The model control group, the compound in Example 26 group and the compound in Example 27 group were administered with 0.5 mL of 50 mg/mL DNBS in 30% ethanol solution. The normal control group was administered with 0.5 mL of 30% ethanol solution. The animals were inverted in anesthesia for 15 minutes after the gavage device was removed. The day when the model was prepared was the first day of the experiment. After 4 hours of DNBS induction, the corresponding drug or the corresponding volume of 1% CMC-Na was administered once per day. On the sixth day of the experiment, the animals were euthanized to observe the results of each index so as to score the colon adhesion degree, measure the length of colon and ulcer area, weigh colon and calculate the colon weight to length ratio.
The compound in Example 26 and Example 27, sulfasalazine and dexamethasone: Preparation Method: Suspended with 1% CMC-Na, and prepared when it was needed.
Levene's Test for homogeneity of data was performed with Spss. Where the data were homogeneous (P>0.05), one-way ANOVA LSD test was performed. Where the analysis of variance was significant (P≤0.05), Dunnett's multiple comparison (parameter method) was performed. Where the results of Levene's Test were significant (P≤0.05), Kruskal-Wallis nonparametric test was performed. Where the results of Kruskal-Wallis nonparametric test were significant (P≤0.05), Mann-Whitney U test was performed for pairwise comparison.

Crohn's disease = settings: C. Yang et, Aliment Pharmacol Ther 2015; cited from earlier work
[3] = 300 mg/Kg i.g. qd × 6, sixth day, Mean ± SD

Row | Compound | Adhesion Degree [1, 3] [Point] | Colon MPO Activity [1, 3] [U/mg] | Colon Weight [1, 3] [mg] | Colon weight to length ratio [1, 3] [mg/cm] | Ulcer Area [1, 3] [cm^2] | reduction of the ulcer area ([1]; 300 mg/Kg, vs model control group) [%] | Adhesion Degree [2, 3] [Points] | Colon Length [2, 3] [cm] | Colon Weight [2, 3] [mg] | Ulcer Area [2, 3] | growth rate of the body weight (in words) ([2]; fourth day of the experiment, compared with model control group, doses as in Table 7) | effectiveness in the treatment of Crohn's disease (in words) (Crohn's disease)
1 | O=C(O)c1cc(/N=N/c2ccc(S(=O)(=O)Nc3ccccn3)cc2)ccc1O [Sulfasalazine, sulfasalazine, reference compound] | 0.2 ± 0.4 | 26.0 ± 14.8 | 1794.9 ± 242.3 | 140.6 ± 27.9 | 0.7 ± 0.6 | 60 | 0.8 ± 0.7 | 13.2 ± 2.5 | 1776.1 ± 280.7 | 1.6 ± 1.2# cm^2 | higher than that in the model control group | –
2 | Nc1cccc2c1CN(C1CCC(=O)NC1=O)C2=O (stereo not shown) [lenalidomide] | – | – | – | – | – | – | – | – | – | – | – | not effective
3 | O=C1CCC(N2C(=O)c3ccccc3C2=O)C(=O)N1 (stereo not shown) [thalidomide] | – | – | – | – | – | – | – | – | – | – | – | not effective
